Values of other authors as cited in PubChem BioAssay AID1259409 (Chemical Carcinogenesis Research Information System (CCRIS), 2018).

Tested on: rodent chemically induced tumor inhibition, incidence and multiplicity
Assay: CCRIS tumor inhibitor studies
Conditions: Route [Inhibitor]: ORAL, Promoter: NONE USED

Question: For `Cc1c(-c2cnccn2)ssc1=S`, which “tumour outcome (control, treated, inhibition, significance)” value (Carcinogen: AZOXYMETHANE, 25843-45-2, Dose [Inhibitor]: 0, 200 PPM IN DIET FOR 56 WK BEGINNING 2 WK PRIOR TO CARCINOGEN TREATMENT (STUDY DURATION: 56 WK), Species: RAT, Strain/Sex: F344/MALE, Target Tissue: Type of Lesion: SMALL INTESTINE (DISTAL): TUMOR, Dose [Carcinogen]: 15 MG/KG 1/WK FOR 2 WK) is on record?
Answer: 12%, 5%, 58%, not significant

Question: What about the “tumour outcome (control, treated, inhibition, significance)” value (Carcinogen: AZOXYMETHANE, 25843-45-2, Dose [Inhibitor]: 0, 200 PPM IN DIET FOR 56 WK BEGINNING 2 WK PRIOR TO CARCINOGEN TREATMENT (STUDY DURATION: 56 WK), Species: RAT, Strain/Sex: F344/MALE, Target Tissue: Type of Lesion: SMALL INTESTINE (PROXIMAL): TUMOR, Dose [Carcinogen]: 15 MG/KG 1/WK FOR 2 WK) of the same compound?
Answer: 33%, 14%, 58%, not significant

Question: And the “tumour outcome (control, treated, inhibition, significance)” value (Carcinogen: AZOXYMETHANE, 25843-45-2, Dose [Inhibitor]: 0, 400 PPM IN DIET 7 WK PRIOR TO CARCINOGEN TREATMENT AND CONTINUING FOR STUDY DURATION (STUDY DURATION: 59 WK), Species: RAT, Strain/Sex: F344/MALE, Target Tissue: Type of Lesion: COLON: ADENOCARCINOMA, Dose [Carcinogen]: 15 MG/KG 1/WK FOR 2 WK)?
Answer: 72%, 50%, 31%, p<0.05

Question: And the “tumour outcome (control, treated, inhibition, significance)” value (Carcinogen: AZOXYMETHANE, 25843-45-2, Dose [Inhibitor]: 0, 400 PPM IN DIET 7 WK PRIOR TO CARCINOGEN TREATMENT AND CONTINUING FOR STUDY DURATION (STUDY DURATION: 59 WK), Species: RAT, Strain/Sex: F344/MALE, Target Tissue: Type of Lesion: COLON: ADENOMA, Dose [Carcinogen]: 15 MG/KG 1/WK FOR 2 WK)?
Answer: 14%, 8%, 43%, not calculated

Question: What about the “tumour outcome (control, treated, inhibition, significance)” value (Carcinogen: AZOXYMETHANE, 25843-45-2, Dose [Inhibitor]: 0, 400 PPM IN DIET 7 WK PRIOR TO CARCINOGEN TREATMENT AND CONTINUING FOR STUDY DURATION (STUDY DURATION: 59 WK), Species: RAT, Strain/Sex: F344/MALE, Target Tissue: Type of Lesion: SMALL INTESTINE: ADENOCARCINOMA, Dose [Carcinogen]: 15 MG/KG 1/WK FOR 2 WK) of the same compound?
Answer: 50%, 8%, 84%, p<0.001

Question: And the “tumour outcome (control, treated, inhibition, significance)” value (Carcinogen: AZOXYMETHANE, 25843-45-2, Dose [Inhibitor]: 0, 400 PPM IN DIET 7 WK PRIOR TO CARCINOGEN TREATMENT AND CONTINUING FOR STUDY DURATION (STUDY DURATION: 59 WK), Species: RAT, Strain/Sex: F344/MALE, Target Tissue: Type of Lesion: SMALL INTESTINE: ADENOMA, Dose [Carcinogen]: 15 MG/KG 1/WK FOR 2 WK)?
Answer: 3%, 0%, 100%, not calculated

Question: And the “tumour outcome (control, treated, inhibition, significance)” value (Carcinogen: AZOXYMETHANE, 25843-45-2, Dose [Inhibitor]: 0, 400 PPM IN DIET FOR 56 WK BEGINNING 2 WK PRIOR TO CARCINOGEN TREATMENT (STUDY DURATION: 56 WK), Species: RAT, Strain/Sex: F344/MALE, Target Tissue: Type of Lesion: COLON (DISTAL): TUMOR, Dose [Carcinogen]: 15 MG/KG 1/WK FOR 2 WK)?
Answer: 47%, 36%, 23%, not significant

Question: What about the “tumour outcome (control, treated, inhibition, significance)” value (Carcinogen: AZOXYMETHANE, 25843-45-2, Dose [Inhibitor]: 0, 400 PPM IN DIET FOR 56 WK BEGINNING 2 WK PRIOR TO CARCINOGEN TREATMENT (STUDY DURATION: 56 WK), Species: RAT, Strain/Sex: F344/MALE, Target Tissue: Type of Lesion: COLON (PROXIMAL): TUMOR, Dose [Carcinogen]: 15 MG/KG 1/WK FOR 2 WK) of the same compound?
Answer: 39%, 36%, 8%, not significant

Question: What about the “tumour outcome (control, treated, inhibition, significance)” value (Carcinogen: AZOXYMETHANE, 25843-45-2, Dose [Inhibitor]: 0, 400 PPM IN DIET FOR 56 WK BEGINNING 2 WK PRIOR TO CARCINOGEN TREATMENT (STUDY DURATION: 56 WK), Species: RAT, Strain/Sex: F344/MALE, Target Tissue: Type of Lesion: SMALL INTESTINE (PROXIMAL): TUMOR, Dose [Carcinogen]: 15 MG/KG 1/WK FOR 2 WK) of the same compound?
Answer: 33%, 5%, 85%, p<0.05

Question: And the “tumour outcome (control, treated, inhibition, significance)” value (Carcinogen: AZOXYMETHANE, 25843-45-2, Dose [Inhibitor]: 0, 400 PPM IN DIET FOR 56 WK BEGINNING 2 WK PRIOR TO CARCINOGEN TREATMENT (STUDY DURATION: 56 WK), Species: RAT, Strain/Sex: F344/MALE, Target Tissue: Type of Lesion: SMALL INTESTINE(DISTAL): TUMOR, Dose [Carcinogen]: 15 MG/KG 1/WK FOR 2 WK)?
Answer: 12%, 5%, 58%, not significant

Question: And the “tumour outcome (control, treated, inhibition, significance)” value (Carcinogen: AZOXYMETHANE, 25843-45-2, Dose [Inhibitor]: O, 200 PPM IN DIET 7 WK PRIOR TO CARCINOGEN TREATMENT AND CONTINUING FOR STUDY DURATION (STUDY DURATION: 59 WK), Species: RAT, Strain/Sex: F344/MALE, Target Tissue: Type of Lesion: SMALL INTESTINE, ADENOMA, Dose [Carcinogen]: 15 MG/KG 1/WK FOR 2 WK)?
Answer: 3%, 0%, 100%, not calculated

Question: And the “tumour outcome (control, treated, inhibition, significance)” value (Carcinogen: BENZO[A]PYRENE, 50-32-8, Dose [Inhibitor]: 0, 180 PPM IN DIET FOR 36 WK BEGINNING 48 HR PRIOR TO CARCINOGEN DOSE (STUDY DURATION: 36 WK), Species: MOUSE, Strain/Sex: STRAIN-A/FEMALE, Target Tissue: Type of Lesion: LUNG: TUMOR, Dose [Carcinogen]: 100 MG/KG IN 0.1 ML OF TRICAPRYLIN ONCE)?
Answer: 100%, 100%, 0%, not significant

Question: And the “tumour outcome (control, treated, inhibition, significance)” value (Carcinogen: BENZO[A]PYRENE, 50-32-8, Dose [Inhibitor]: 0, 360 PPM IN DIET FOR 36 WK BEGINNING 48 HR PRIOR TO CARCINOGEN DOSE (STUDY DURATION: 36 WK), Species: MOUSE, Strain/Sex: STRAIN-A/FEMALE, Target Tissue: Type of Lesion: LUNG: TUMOR, Dose [Carcinogen]: 100 MG/KG IN 0.1 ML OF TRICAPRYLIN ONCE)?
Answer: 100%, 100%, 0%, not significant

Question: What about the “tumour outcome (control, treated, inhibition, significance)” value (Carcinogen: DIETHYLNITROSAMINE, 55-18-5, Dose [Inhibitor]: 0, 300 MG/KG DIET FOR DURATION OF STUDY BEGINNING 1 WK PRIOR TO CARCINOGEN TREATMENT (STUDY DURATION: 25 WK), Species: HAMSTER, Strain/Sex: SYRIAN/MALE, Target Tissue: Type of Lesion: LUNG: CARCINOMA, Dose [Carcinogen]: 17.8 MG/KG BW 2/WK FOR 20 WK) of the same compound?
Answer: 50%, 33%, 34%, not significant

Question: And the “tumour outcome (control, treated, inhibition, significance)” value (Carcinogen: DIETHYLNITROSAMINE, 55-18-5, Dose [Inhibitor]: 0, 300 MG/KG DIET FOR DURATION OF STUDY BEGINNING 1 WK PRIOR TO CARCINOGEN TREATMENT (STUDY DURATION: 25 WK), Species: HAMSTER, Strain/Sex: SYRIAN/MALE, Target Tissue: Type of Lesion: TRACHEA: PAPILLOMA, Dose [Carcinogen]: 17.8 MG/KG BW 2/WK FOR 20 WK)?
Answer: 95%, 85%, 11%, not significant

Question: And the “tumour outcome (control, treated, inhibition, significance)” value (Carcinogen: DIETHYLNITROSAMINE, 55-18-5, Dose [Inhibitor]: 0, 600 MG/KG DIET FOR DURATION OF STUDY BEGINNING 1 WK PRIOR TO CARCINOGEN TREATMENT (STUDY DURATION: 25 WK), Species: HAMSTER, Strain/Sex: SYRIAN/MALE, Target Tissue: Type of Lesion: LUNG: CARCINOMA, Dose [Carcinogen]: 17.8 MG/KG BW 2/WK FOR 20 WK)?
Answer: 60%, 0%, 100%, p<0.0001
